{"source": "patent EP0039037A1", "about": "“Pyrimidylthio-ureas, medicines containing them and their use” (Beiersdorf Aktiengesellschaft, priority 1980, dated 1981)", "key": {"[1]": {"system": "spontan hypertensive Ratten", "experiment": "Blood-pressure-lowering effect in spontaneously hypertensive rats", "assay_type": "in vivo", "details": "30 mg/kg peroral", "experimental": "(§1) Es wurde die lipid- und blutdrucksenkende Wirkung von N-(2,4-DimethoxY-5-pyrimidyl)-thioharnstoff untersucht. Als Yersuchsziere. wurden hyperlipidämische Mäuse und spontan hypertensive Ratten verwendet.\nBei den Ratten wurde eine Dosis von 30 mg/kg peroral verabreicht, wobei eine Blutdrucksenkung von 30 % erzielt wurde.\nEs wurde die blutdrucksenkende Wirkung von N-(4,6-Dimethoxy-2-methyl-5-pyrimidyl)-thioharnstoff bei spontan hypertensiven Ratten untersucht. Den Ratten wurde die Verbindung in einer Dosis von 30 mg/kg peroral verabreicht. Damit wurde eine Blutdrucksenkung von 30 % erzielt."}, "[2]": {"system": "hyperlipidämische Mäuse", "experiment": "Lipid-lowering effect in hyperlipidaemic mice (method analogous to Turner, Screening Methods in Pharmacology, and Garattini et al.)", "assay_type": "in vivo", "experimental": "Die lipidsenkende Wirkung von N. (4,6-Dimethoxy-5-pyrimidyl)-thioharnstoff wurde an hyperliprdämischen Mausen analog einer Untersuchungsmethode, wie in \"Screening Methods in Pharmacology\", Robert A. Turner, 1965, Academic Press, New York and London, und Garattini et al, Arzneimittelforschung 9, 206 (1959), angegeben, untersucht. Die Verbindung wurde in einer Menge von 10 mg/kg peroral verabreicht. Es wurde eine Senkung des Cholesterinspiegels von 25 % und eine Senkung der Triglyceride von 27% erzielt.\nas §1\nBei den Mäusen wurde eine Verabreichungsdosis von 100 mg/ kg peroral verwendet, wobei eine Senkung des Cholesterinspiegels von 38 % und eine Senkung der Triglyceride von 49 % erreicht wurde."}}}
{"compound": "COc1nc(C)nc(OC)c1NC(N)=S", "note": "[N-(4,6-Dimethoxy-2-methyl-5-pyrimidyl)-thioharnstoff]", "values": [{"measurement": "Blutdrucksenkung", "setting": "[1]", "value": 30, "unit": "%"}]}
{"compound": "COc1ncc(NC(N)=S)c(OC)n1", "note": "[N-(2,4-Dimethoxy-5-pyrimidyl)-thioharnstoff]", "values": [{"measurement": "Blutdrucksenkung", "setting": "[1]", "value": 30, "unit": "%"}, {"measurement": "Senkung der Triglyceride", "setting": "[2]; 100 mg/kg peroral", "value": 49, "unit": "%"}, {"measurement": "Senkung des Cholesterinspiegels", "setting": "[2]; 100 mg/kg peroral", "value": 38, "unit": "%"}]}
{"compound": "COc1ncnc(OC)c1NC(N)=S", "note": "[N-(4,6-Dimethoxy-5-pyrimidyl)-thioharnstoff]", "values": [{"measurement": "Senkung der Triglyceride", "setting": "[2]; 10 mg/kg peroral", "value": 27, "unit": "%"}, {"measurement": "Senkung des Cholesterinspiegels", "setting": "[2]; 10 mg/kg peroral", "value": 25, "unit": "%"}]}
